Assay results reported in US20220218806A1, “PEPTIDES AND CONJUGATES FOR TREATMENT OF ARTHRITIS” (CRL-SCI Corporation, priority 2019, published 2022).
“Also recorded” adds a separate entry of the source. Where two headings read alike, the source gives them in different places. Square brackets hold non-standard residues; d marks the D form. Ends that are not written are not given here. Cit = NC(=O)NCCC[C@H](N)C(=O)O

Columns and labels:
GIA model of RA [1] = assay: Visual arthritis score (VAS) after therapeutic LEAPS vaccination in rhG1-induced arthritis; assay type: in vivo, BALB/c mice; conditions: overall conclusion
GIA model of RA [2] = assay: Histopathology of hind limbs (ankles, hind paws) of diseased mice after vaccination; assay type: in vivo, BALB/c mice
[3] = tested on: beDerG-PG70, bePG275cit, beOVA-OR8, beDerG-PG275cit, bePG70, beDerG-GGG; assay: Serum anti-LEAPS peptide antibody ELISA (biotinylated peptides on NeutrAvidin plates); assay type: in vivo, BALB/c mice; conditions: sera of vaccinated mice, day 35
CD4+ spleen T cells = assay: Intracellular cytokines and FoxP3 in spleen T cells by flow cytometry; assay type: cell-based, BALB/c mice
Procedure: (§1) Animals were euthanized on day 35 after the first control or LEAPS vaccination, and sera was collected. For histopathology, hind limbs (from 5 mice/treatment groups plus 3 normal mice limbs) were dissected and fixed in 10% buffered formalin. The specimens were embedded in paraffin and sectioned. Adjacent tissue sections were stained separately with TB and HE. Microscopic analysis and scoring of joint damage were carried out independently under code by Bolder BioPath. Serum anti-LEAPS peptide antibody levels were determined by ELISA using Neutavidin plates and Biotin labeled peptides for loading onto plates. To determine cytokine production by spleen cell cultures, after a 4-day stimulation of spleen cells with 7.5 μg/ml rhG1 (or no treatment as control), cytokines secreted into the culture media were assayed by MagPix as 9-plex or 6-plex kits from R&D Systems. For intracellular cytokines and FoxP3 detection, spleen cells from 5 mice from each group were cultured with rhG1 for 4 days. The cells were treated with PMA, ionomycin, and GolgiStop for 4 hours, stained for cell surface markers and intracellular cytokines or Foxp3. Samples were run on a FACS Canto flow cytometer and the results analyzed by FACS Diva software. Statistical analysis of data was done using GraphPad Prism 7 software package. Nonparametric and multiple comparison test were conducted as described. […]

spleen cells = assay: Cytokines secreted by rhG1-stimulated spleen cell cultures (MagPix); assay type: cell-based, BALB/c mice; conditions: 7.5 μg/ml rhG1 4 days, stimulated less non-stimulated
Procedure: as §1

[4] = in mice; cited from earlier work
[5] = in humans; cited from earlier work
[6] = ankles, 40x magnification, day 35
[7] = hind paws, digit joints, 16x magnification

DGQEEKAGVVSTGLIGGGMDMCSAGWLADCitSVR-amide (DGQEEKAGVVSTGLIGGGMDMCSAGWLAD[Cit]SVR-NH2; not fully specified) [DerG-PG275Cit]
Therapeutic effect / protection in the GIA model of RA (GIA model of RA [1]): therapeutic in the GIA model of RA with high efficacy | Cartilage damage, ankle histopathology (GIA model of RA [2]; [6]): mild | Inflammation, ankle histopathology (GIA model of RA [2]; [6]): moderate | Joints affected, ankle histopathology (GIA model of RA [2]; [6]): the ankle and several digit joints | Joints affected, hind paw histopathology (GIA model of RA [2]; hind paws, 16x magnification): several digit joints | Cartilage damage, hind paw histopathology (GIA model of RA [2]; [7]): mild | Inflammation, hind paw histopathology (GIA model of RA [2]; [7]): moderate | Serum antibodies to vaccine peptides (OD 450 nm) [3]: does not induce antibodies to either DerG or PG275Cit or the conjugate; also recorded: induced antibodies against neither the DerG element nor the PG275Cit element | Treg cell activation (FoxP3) (CD4+ spleen T cells; CD4+ spleen T cells, rhG1 4 days): appeared to activate Treg cells | Net secreted IFNγ (spleen cells): induced | Net secreted IL17A (spleen cells): induced

MDMCSAGWLADCitSVR-amide (MDMCSAGWLAD[Cit]SVR-NH2; not fully specified) [PG275Cit]
Immunogenicity of epitope [4]: more immunogenic than PG275 | Immunogenicity of epitope [5]: more immunogenic than PG275

ATEGRVRVNSAYQDK-amide (ATEGRVRVNSAYQDK-NH2) [PG70, proteoglycan aggrecan (G1) residues 70-84]
Immunogenicity of epitope [4]: more immunogenic than PG70Cit

GQEEKAGVVSTGLIGGGMDMCSAGWLADRSVR-NH2 [DerG-PG275]
Therapeutic effect / protection in the GIA model of RA (GIA model of RA [1]): can provide protection alone | Modulation of Th2, Treg, Th1 cells and cytokines (CD4+ spleen T cells; overall conclusion): does not appear to up modulate Th2 or Treg or Th1 cells or cytokines
